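Protocol summary: plate cells (96-well), add compound at 5 concentrations, incubate 48 h, interpolate endpoints linearly. TGI: concentration producing complete growth inhibition.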
Experiments:
Assay in all cases: growth of human tumour cells (NCI), 48 h
A549 NSCLC = system: A549 NSCLC
NCI-H522 lung = system: NCI-H522 lung
EKVX NSCLC = system: EKVX NSCLC
SW-620 colon = system: SW-620 colon
RPMI-8226 leukemia = system: RPMI-8226 leukemia
DMS 273 small cell lung = system: DMS 273 small cell lung
HOP-92 NSCLC = system: HOP-92 NSCLC
M19-MEL melanoma = system: M19-MEL melanoma
ACHN renal = system: ACHN renal
SN12C renal = system: SN12C renal
UO-31 renal = system: UO-31 renal
LOX IMVI melanoma = system: LOX IMVI melanoma
SNB-19 CNS = system: SNB-19 CNS
SK-MEL-5 melanoma = system: SK-MEL-5 melanoma
K-562 leukemia = system: K-562 leukemia
HCC-2998 colon = system: HCC-2998 colon
NCI-H226 lung = system: NCI-H226 lung
MOLT-4 leukemia = system: MOLT-4 leukemia
SNB-75 CNS = system: SNB-75 CNS
KM20L2 colon = system: KM20L2 colon
M14 melanoma = system: M14 melanoma
SNB-78 CNS = system: SNB-78 CNS
OVCAR-8 ovarian = system: OVCAR-8 ovarian
U251 CNS = system: U251 CNS
KM12 colon = system: KM12 colon
786-0 renal = system: 786-0 renal
OVCAR-4 ovarian = system: OVCAR-4 ovarian
TK-10 renal = system: TK-10 renal
HCT-15 colon = system: HCT-15 colon
SF-539 CNS = system: SF-539 CNS
CAKI-1 renal = system: CAKI-1 renal
UACC-62 melanoma = system: UACC-62 melanoma
A498 renal = system: A498 renal
SK-OV-3 ovarian = system: SK-OV-3 ovarian
LXFL 529 NSCLC = system: LXFL 529 NSCLC
HCT-116 colon = system: HCT-116 colon
HL-60(TB) leukemia = system: HL-60(TB) leukemia
HT29 colon = system: HT29 colon
OVCAR-5 ovarian = system: OVCAR-5 ovarian
UACC-257 melanoma = system: UACC-257 melanoma
RXF 393 renal = system: RXF 393 renal
HOP-62 NSCLC = system: HOP-62 NSCLC
SF-295 CNS = system: SF-295 CNS
IGROV1 ovarian = system: IGROV1 ovarian
NCI-H460 lung = system: NCI-H460 lung
SF-268 CNS = system: SF-268 CNS
NCI-H23 lung = system: NCI-H23 lung
SK-MEL-2 melanoma = system: SK-MEL-2 melanoma
SR leukemia = system: SR leukemia
SK-MEL-28 melanoma = system: SK-MEL-28 melanoma
COLO 205 colon = system: COLO 205 colon
DMS 114 small cell lung = system: DMS 114 small cell lung
XF 498 CNS = system: XF 498 CNS
CCRF-CEM leukemia = system: CCRF-CEM leukemia
DLD-1 colon = system: DLD-1 colon
MALME-3M melanoma = system: MALME-3M melanoma
HOP-18 NSCLC = system: HOP-18 NSCLC
OVCAR-3 ovarian = system: OVCAR-3 ovarian

CC1(n2nc(-c3ccccc3)n(-c3ccccc3)c2=O)CSC1
TGI (A549 NSCLC): > 100 µM | TGI (NCI-H522 lung): > 100 µM | TGI (EKVX NSCLC): > 100 µM | TGI (SW-620 colon): > 100 µM | TGI (RPMI-8226 leukemia): > 100 µM | TGI (DMS 273 small cell lung): > 100 µM | TGI (HOP-92 NSCLC): > 100 µM | TGI (M19-MEL melanoma): > 100 µM | TGI (ACHN renal): > 100 µM | TGI (SN12C renal): > 100 µM | TGI (UO-31 renal): > 100 µM | TGI (LOX IMVI melanoma): > 100 µM | TGI (SNB-19 CNS): > 100 µM | TGI (SK-MEL-5 melanoma): > 100 µM | TGI (K-562 leukemia): > 100 µM | TGI (HCC-2998 colon): > 100 µM | TGI (NCI-H226 lung): > 100 µM | TGI (MOLT-4 leukemia): > 100 µM | TGI (SNB-75 CNS): > 100 µM | TGI (KM20L2 colon): > 100 µM | TGI (M14 melanoma): > 100 µM | TGI (SNB-78 CNS): > 100 µM | TGI (OVCAR-8 ovarian): > 100 µM | TGI (U251 CNS): > 100 µM | TGI (KM12 colon): > 100 µM | TGI (786-0 renal): > 100 µM | TGI (OVCAR-4 ovarian): > 100 µM | TGI (TK-10 renal): > 100 µM | TGI (HCT-15 colon): > 100 µM | TGI (SF-539 CNS): > 100 µM | TGI (CAKI-1 renal): > 100 µM | TGI (UACC-62 melanoma): > 100 µM | TGI (A498 renal): > 100 µM | TGI (SK-OV-3 ovarian): > 100 µM | TGI (LXFL 529 NSCLC): > 100 µM | TGI (HCT-116 colon): > 100 µM | TGI (HL-60(TB) leukemia): > 100 µM | TGI (HT29 colon): > 100 µM | TGI (OVCAR-5 ovarian): > 100 µM | TGI (UACC-257 melanoma): > 100 µM | TGI (RXF 393 renal): > 100 µM | TGI (HOP-62 NSCLC): > 100 µM | TGI (SF-295 CNS): > 100 µM | TGI (IGROV1 ovarian): > 100 µM | TGI (NCI-H460 lung): > 100 µM | TGI (SF-268 CNS): > 100 µM | TGI (NCI-H23 lung): > 100 µM | TGI (SK-MEL-2 melanoma): > 100 µM | TGI (SR leukemia): > 100 µM | TGI (SK-MEL-28 melanoma): > 100 µM | TGI (COLO 205 colon): > 100 µM | TGI (DMS 114 small cell lung): > 100 µM | TGI (XF 498 CNS): > 100 µM | TGI (CCRF-CEM leukemia): > 100 µM | TGI (DLD-1 colon): > 100 µM

CCOC(=O)C(Cc1ccc2ccccc2c1)(Cc1ccc2ccccc2c1)C(C)=O
TGI (A549 NSCLC): > 10 µM | TGI (SW-620 colon): > 10 µM | TGI (RPMI-8226 leukemia): 6.58 µM | TGI (DMS 273 small cell lung): > 10 µM | TGI (HOP-92 NSCLC): > 10 µM | TGI (M19-MEL melanoma): > 10 µM | TGI (ACHN renal): > 10 µM | TGI (SN12C renal): > 10 µM | TGI (LOX IMVI melanoma): > 10 µM | TGI (K-562 leukemia): > 10 µM | TGI (HCC-2998 colon): 8.51 µM | TGI (MALME-3M melanoma): > 10 µM | TGI (MOLT-4 leukemia): 8.61 µM | TGI (KM20L2 colon): > 10 µM | TGI (M14 melanoma): > 10 µM | TGI (SNB-78 CNS): > 10 µM | TGI (U251 CNS): > 10 µM | TGI (786-0 renal): > 10 µM | TGI (OVCAR-4 ovarian): > 10 µM | TGI (HCT-15 colon): > 10 µM | TGI (UACC-62 melanoma): > 10 µM | TGI (SK-OV-3 ovarian): > 10 µM | TGI (LXFL 529 NSCLC): > 10 µM | TGI (HOP-62 NSCLC): > 10 µM | TGI (IGROV1 ovarian): > 10 µM | TGI (NCI-H460 lung): > 10 µM | TGI (COLO 205 colon): > 10 µM | TGI (XF 498 CNS): > 10 µM | TGI (CCRF-CEM leukemia): > 10 µM | TGI (DLD-1 colon): > 10 µM

COc1ccc(-c2cn3ccsc3n2)cc1
TGI (A549 NSCLC): > 100 µM | TGI (HOP-18 NSCLC): > 100 µM | TGI (NCI-H522 lung): > 100 µM | TGI (EKVX NSCLC): > 100 µM | TGI (SW-620 colon): 34.9 µM | TGI (RPMI-8226 leukemia): 54.6 µM | TGI (DMS 273 small cell lung): > 100 µM | TGI (HOP-92 NSCLC): > 100 µM | TGI (M19-MEL melanoma): > 100 µM | TGI (ACHN renal): > 100 µM | TGI (SN12C renal): > 100 µM | TGI (UO-31 renal): > 100 µM | TGI (LOX IMVI melanoma): > 100 µM | TGI (SNB-19 CNS): > 100 µM | TGI (SK-MEL-5 melanoma): > 100 µM | TGI (K-562 leukemia): > 100 µM | TGI (HCC-2998 colon): > 100 µM | TGI (NCI-H226 lung): > 100 µM | TGI (MALME-3M melanoma): > 100 µM | TGI (MOLT-4 leukemia): > 100 µM | TGI (SNB-75 CNS): > 100 µM | TGI (KM20L2 colon): > 100 µM | TGI (M14 melanoma): > 100 µM | TGI (SNB-78 CNS): > 100 µM | TGI (OVCAR-8 ovarian): > 100 µM | TGI (U251 CNS): > 100 µM | TGI (KM12 colon): > 100 µM | TGI (786-0 renal): > 100 µM | TGI (OVCAR-4 ovarian): > 100 µM | TGI (TK-10 renal): > 100 µM | TGI (HCT-15 colon): > 100 µM | TGI (SF-539 CNS): > 100 µM | TGI (CAKI-1 renal): > 100 µM | TGI (UACC-62 melanoma): > 100 µM | TGI (SK-OV-3 ovarian): > 100 µM | TGI (LXFL 529 NSCLC): > 100 µM | TGI (HCT-116 colon): > 100 µM | TGI (OVCAR-3 ovarian): > 100 µM | TGI (HL-60(TB) leukemia): 85.7 µM | TGI (HT29 colon): > 100 µM | TGI (OVCAR-5 ovarian): > 100 µM | TGI (UACC-257 melanoma): > 100 µM | TGI (HOP-62 NSCLC): > 100 µM | TGI (SF-295 CNS): > 100 µM | TGI (IGROV1 ovarian): > 100 µM | TGI (NCI-H460 lung): > 100 µM | TGI (SF-268 CNS): > 100 µM | TGI (NCI-H23 lung): > 100 µM | TGI (SK-MEL-2 melanoma): > 100 µM | TGI (SR leukemia): 75.6 µM | TGI (SK-MEL-28 melanoma): > 100 µM | TGI (COLO 205 colon): > 100 µM | TGI (DMS 114 small cell lung): > 100 µM | TGI (CCRF-CEM leukemia): > 100 µM | TGI (DLD-1 colon): > 100 µM

Cc1ccc2nc3c(C(=O)NCCN(C)C)cccc3nc2c1
TGI (A549 NSCLC): > 100 µM | TGI (HOP-18 NSCLC): > 87.3 µM | TGI (NCI-H522 lung): > 100 µM | TGI (EKVX NSCLC): 24.2 µM | TGI (SW-620 colon): > 35.7 µM | TGI (RPMI-8226 leukemia): 40.8 µM | TGI (DMS 273 small cell lung): > 100 µM | TGI (HOP-92 NSCLC): > 22.4 µM | TGI (M19-MEL melanoma): 7.29 µM | TGI (ACHN renal): 14.9 µM | TGI (SN12C renal): 27.9 µM | TGI (UO-31 renal): > 54.8 µM | TGI (LOX IMVI melanoma): 5.19 µM | TGI (SNB-19 CNS): 46.3 µM | TGI (SK-MEL-5 melanoma): > 39.8 µM | TGI (K-562 leukemia): 9.27 µM | TGI (HCC-2998 colon): 32.3 µM | TGI (NCI-H226 lung): 10.4 µM | TGI (MALME-3M melanoma): 8.37 µM | TGI (MOLT-4 leukemia): 6.29 µM | TGI (SNB-75 CNS): 42.9 µM | TGI (KM20L2 colon): 18.2 µM | TGI (M14 melanoma): > 33.7 µM | TGI (SNB-78 CNS): 41.1 µM | TGI (OVCAR-8 ovarian): > 42.2 µM | TGI (U251 CNS): 24.3 µM | TGI (KM12 colon): 20.2 µM | TGI (786-0 renal): > 77.2 µM | TGI (OVCAR-4 ovarian): 15.2 µM | TGI (TK-10 renal): > 66 µM | TGI (HCT-15 colon): 18 µM | TGI (SF-539 CNS): 15.7 µM | TGI (CAKI-1 renal): > 31.6 µM | TGI (UACC-62 melanoma): 16.8 µM | TGI (A498 renal): 8.7 µM | TGI (SK-OV-3 ovarian): > 56.3 µM | TGI (LXFL 529 NSCLC): > 47.1 µM | TGI (HCT-116 colon): 12 µM | TGI (OVCAR-3 ovarian): 32.4 µM | TGI (HL-60(TB) leukemia): > 100 µM | TGI (HT29 colon): 15.4 µM | TGI (OVCAR-5 ovarian): 29.8 µM | TGI (UACC-257 melanoma): 14.1 µM | TGI (RXF 393 renal): 15.5 µM | TGI (HOP-62 NSCLC): 14 µM | TGI (SF-295 CNS): > 27.1 µM | TGI (IGROV1 ovarian): > 60.1 µM | TGI (NCI-H23 lung): 17.1 µM | TGI (SK-MEL-2 melanoma): 12.9 µM | TGI (SR leukemia): > 100 µM | TGI (SK-MEL-28 melanoma): 10.9 µM | TGI (COLO 205 colon): > 22.4 µM | TGI (DMS 114 small cell lung): 11.6 µM
